{"source": "paper PMC3281693", "about": "(The Journal of Biological Chemistry, 2011)", "molecules": {"B1": {"name": "E. coli catabolite-activated protein (CAP) (natural protein, UniProt P0ACJ8 1-210, looked up)", "chain": "MVLGKPQTDPTLEWFLSHCHIHKYPSKSTLIHQGEKAETLYYIVKGSVAVLIKDEEGKEMILSYLNQGDFIGELGLFEEGQERSAWVRAKTACEVAEISYKKFRQLIQVNPDILMRLSAQMARRLQVTSEKVGNLAFLDVTGRIAQTLLNLAKQPDAMTHPDGMQIKITRQEIGQIVGCSRETVGRILKMLEDQNLISAHGKTIVVYGTR"}}, "key": {"Rpm1-NBARC": {"molecular_target": "T1, Rpm1-NBARC (Arabidopsis thaliana, UniProt Q39214)", "T1 sequence (Q39214 177-519)": "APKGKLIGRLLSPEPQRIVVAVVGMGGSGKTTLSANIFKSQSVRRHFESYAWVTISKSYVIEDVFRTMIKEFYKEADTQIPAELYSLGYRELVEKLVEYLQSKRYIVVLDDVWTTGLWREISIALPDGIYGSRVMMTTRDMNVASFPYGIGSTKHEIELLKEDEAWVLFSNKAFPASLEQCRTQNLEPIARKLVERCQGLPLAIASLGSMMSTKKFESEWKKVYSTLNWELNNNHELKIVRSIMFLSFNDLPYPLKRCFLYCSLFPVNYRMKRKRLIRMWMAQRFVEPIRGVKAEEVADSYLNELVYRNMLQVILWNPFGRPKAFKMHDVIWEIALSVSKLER", "details": "100 μM ATP, 10 nM protein; MgCl2, pH 7.5"}, "cross-linking": {"molecular_target": "the molecule itself", "assay": "cross-linking"}}}
{"molecule": "Nc1ncnc2c1ncn2[C@@H]1O[C@H](COP(=O)(O)OP(=O)(O)OP(=O)(O)O)[C@@H](O)[C@H]1O", "note": "[ATP]", "values": [{"measurement": "nucleotide phosphatase assay, HPLC", "setting": "Rpm1-NBARC", "result": "Rpm1-NBARC catalyzed the production of Ado from ATP and ADP"}]}
{"molecule": "B1", "values": [{"measurement": "stoichiometry N", "setting": "cross-linking", "result": 2}]}
